From US9815842B2, “Pyrazolo pyrimidine derivatives and their use as MALT1 inhibitors” (Novartis AG, priority 2014, dated 2017) come the findings set out here.

In assay [1] the target is C-domain of MALT1 (amino acids 329-824) (Homo sapiens (Human), UniProt Q9UDY8). The assay is described as follows: MALT1 biochemical assay (fluorescence lifetime enzyme activity assay). The settings on record: 60 min pre-incubation, 2.5 nM enzyme, 1 μM peptide substrate.
Assay [2] concerns the target T1, cIAP2-MALT1 fusion protein (Homo sapiens, UniProt Q9UDY8). The settings on record: read-out: NFkappaB reporter gene assay IC50; HEK293 stably expressing cIAP2-MALT1, luciferase, 24 h compound incubation.
Procedure: (§1) For the measurement of compound inhibition, 0.25 μl of test compound were mixed with 12.5 μl of enzyme in wells of the 384-well plates, and incubated for 60 minutes at room temperature (22° C.). After that, 12.5 μl of substrate was added, and the enzymatic reaction was allowed to proceed for 60 minutes at room temperature (22° C.). […] The DMSO content was between 0.9 and 1% (v/v). […] The IC50 value was calculated from the plot of percentage inhibition versus inhibitor concentration using non-linear regression analysis software (Origin, OriginLab Corporation, USA). The data were fitted using a 4 Parameter Logistic Model, characterized by the following equation: y=A2+(A1−A2)/(1+(x/IC50)^p) where y is the %-inhibition at the inhibitor concentration, x. A1 is the lowest inhibition value, and A2 the maximum inhibition value.
Assay [3] has as its system Human IL2 promoter. The assay is described as follows: Human IL2 promoter reporter gene assay (RGA) in Jurkat cells. In kind it is cell-based. As to conditions: Jurkat clone K22 290_H23, anti-CD28 mAb + PMA stimulation 5.5 h. The method, boiled down: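 Transfected Jurkat clone K22 290_H23 cells were pre-incubated with compounds 30 min at 37 °C, then stimulated 5.5 h with anti-CD28 mAb (15E8, 3 μg/ml) plus PMA (1 μg/ml). IL2-promoter reporter activity was read as BriteLitePlus bioluminescence.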

Assay [4] has as its target T1, cIAP2-MALT1 fusion protein. The assay is described as follows: cell-based.
Procedure: as §1

Like-named read-outs stand apart in the source and are kept apart here.

T1 sequence (Q9UDY8 2-824 limits assumed): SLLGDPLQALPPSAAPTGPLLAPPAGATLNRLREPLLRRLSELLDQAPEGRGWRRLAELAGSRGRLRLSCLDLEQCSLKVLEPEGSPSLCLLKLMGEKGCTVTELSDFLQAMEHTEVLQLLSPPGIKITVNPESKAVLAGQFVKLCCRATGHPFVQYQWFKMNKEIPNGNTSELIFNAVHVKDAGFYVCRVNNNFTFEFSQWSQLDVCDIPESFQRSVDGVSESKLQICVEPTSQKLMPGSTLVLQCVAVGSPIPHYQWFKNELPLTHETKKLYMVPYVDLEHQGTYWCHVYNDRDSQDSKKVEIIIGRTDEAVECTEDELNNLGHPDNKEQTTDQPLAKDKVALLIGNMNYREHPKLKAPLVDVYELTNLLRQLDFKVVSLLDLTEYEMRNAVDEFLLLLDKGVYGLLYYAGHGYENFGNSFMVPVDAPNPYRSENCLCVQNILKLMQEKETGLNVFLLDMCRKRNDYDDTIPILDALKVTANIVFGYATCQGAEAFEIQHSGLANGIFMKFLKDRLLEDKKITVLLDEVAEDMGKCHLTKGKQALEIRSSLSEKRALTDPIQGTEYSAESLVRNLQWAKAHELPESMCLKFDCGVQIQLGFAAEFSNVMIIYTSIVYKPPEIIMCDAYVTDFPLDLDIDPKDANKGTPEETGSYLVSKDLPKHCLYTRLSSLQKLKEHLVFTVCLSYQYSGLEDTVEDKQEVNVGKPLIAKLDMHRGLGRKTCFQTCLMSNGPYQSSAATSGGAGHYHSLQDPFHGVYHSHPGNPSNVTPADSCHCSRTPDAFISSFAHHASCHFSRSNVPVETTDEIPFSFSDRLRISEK
Chain of C-domain of MALT1 (amino acids 329-824) (Q9UDY8 329-824): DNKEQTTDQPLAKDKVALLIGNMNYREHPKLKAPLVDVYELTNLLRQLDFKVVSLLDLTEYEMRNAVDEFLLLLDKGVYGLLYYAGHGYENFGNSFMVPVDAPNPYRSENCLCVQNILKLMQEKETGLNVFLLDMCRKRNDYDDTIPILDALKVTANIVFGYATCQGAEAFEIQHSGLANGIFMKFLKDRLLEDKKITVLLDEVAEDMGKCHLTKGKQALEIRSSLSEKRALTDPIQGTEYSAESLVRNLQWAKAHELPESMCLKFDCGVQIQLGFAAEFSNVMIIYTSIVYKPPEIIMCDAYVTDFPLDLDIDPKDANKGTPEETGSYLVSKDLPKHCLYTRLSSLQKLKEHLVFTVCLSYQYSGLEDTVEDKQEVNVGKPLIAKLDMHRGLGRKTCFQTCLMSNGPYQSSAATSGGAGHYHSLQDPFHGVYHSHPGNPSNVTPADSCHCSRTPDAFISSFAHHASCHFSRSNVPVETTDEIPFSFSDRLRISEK

The IC50 is the concentration needed to halve the response being measured. For `CC(C)c1c(NC(=O)Nc2cc(Cl)c(-n3nccn3)nc2OC2CCN(C)C2)cnc2cc(Cl)nn12` (centres unmarked) [Example 33, 1-(5-chloro-2-((1-methylpyrrolidin-3-yl)oxy)-6-(2H-1,2,3-triazol-2-yl)pyridin-3-yl)-3-(2-chloro-7-isopropylpyrazolo[1,5-a]pyrimidin-6-yl)urea], the IC50 was found to be 30 nM in assay [1] and 408 nM in assay [2].

For the compound `C[C@H](c1c(NC(=O)Nc2cnc(-n3nccn3)c(Cl)c2)cnc2cc(Cl)nn12)N(C)C` [Example 121, (R)-1-(5-chloro-6-(2H-1,2,3-triazol-2-yl)pyridin-3-yl)-3-(2-chloro-7-(1-(dimethylamino)ethyl)pyrazolo[1,5-a]pyrimidin-6-yl)urea], the concentration for half-maximal inhibition (IC50) in assay [2] came out at 218 nM. In the case of `COCC1(c2c(NC(=O)Nc3ccnc(C(F)(F)F)c3)cnc3cc(Cl)nn23)CCC1` [Example 51, 1-(2-chloro-7-(1-(methoxymethyl)cyclobutyl)pyrazolo[1,5-a]pyrimidin-6-yl)-3-(2-(trifluoromethyl)pyridin-4-yl)urea], the IC50 in assay [2] amounted to 195 nM. As for `CO[C@@H](C)c1c(NC(=O)Nc2ccnc(C(F)(F)F)c2)cnc2cc(C)nn12` [Example 6, (S)-1-(7-(1-methoxyethyl)-2-methylpyrazolo[1,5-a]pyrimidin-6-yl)-3-(2-(trifluoromethyl)pyridin-4-yl)urea], the IC50 in assay [3] came to 52 nM; in assay [2] it was 132 nM.

Consider `O=C(Nc1cnc(-n2nccn2)c(C(F)(F)F)c1)Nc1cnc2cc(Cl)nn2c1-c1ccco1` [Example 63, 1-(6-(2H-1,2,3-triazol-2-yl)-5-(trifluoromethyl)pyridin-3-yl)-3-(2-chloro-7-(furan-2-yl)pyrazolo[1,5-a]pyrimidin-6-yl)urea], for which the IC50 in assay [2] was found to be 354 nM. As for `CCC(C)c1c(NC(=O)Nc2cnc(-n3nccn3)c(Cl)c2)cnc2cc(Cl)nn12` (centres unmarked) [Example 35, 1-(7-(sec-butyl)-2-chloropyrazolo[1,5-a]pyrimidin-6-yl)-3-(5-chloro-6-(2H-1,2,3-triazol-2-yl)pyridin-3-yl)urea], the IC50 is 59 nM in assay [3] and 48 nM in assay [2]. With `C[C@@H](c1c(NC(=O)Nc2cnc(-n3nccn3)c(Cl)c2)cnc2cc(Cl)nn12)N(C)C` [Example 122, (S)-1-(5-chloro-6-(2H-1,2,3-triazol-2-yl)pyridin-3-yl)-3-(2-chloro-7-(1-(dimethylamino)ethyl)pyrazolo[1,5-a]pyrimidin-6-yl)urea], the IC50 in assay [3] is 17 nM; in assay [2], 43 nM. Take `CN1CCOCC1Cc1c(NC(=O)Nc2cnc(-n3nccn3)c(Cl)c2)cnc2cc(Cl)nn12` (centres unmarked) [Example 83, 1-(5-chloro-6-(2h-1,2,3-triazol-2-yl)pyridin-3-yl)-3-(2-chloro-7-((4-methylmorpholin-3-yl)methyl)pyrazolo[1,5-a]pyrimidin-6-yl)urea]: the IC50 in assay [2] is 829 nM. Turning to `COc1ncc(NC(=O)Nc2cnc3cc(Cl)nn3c2[C@H](C)OC)cc1Cl` [Example 9, (S)-1-(5-chloro-6-methoxypyridin-3-yl)-3-(2-chloro-7-(1-methoxyethyl)pyrazolo[1,5-a]pyrimidin-6-yl)urea], the IC50 in assay [3] was 109 nM; in assay [2], 44 nM.

`CN1CCOC(c2c(NC(=O)Nc3cnc(-n4nccn4)c(Cl)c3)cnc3cc(Cl)nn23)C1` (centres unmarked) [Example 116, 1-(5-chloro-6-(2H-1,2,3-triazol-2-yl)pyridin-3-yl)-3-(2-chloro-7-(4-methylmorpholin-2-yl)pyrazolo[1,5-a]pyrimidin-6-yl)urea]: in assay [2], the IC50 was determined as 687 nM. On to `COc1ncc(NC(=O)Nc2cnc3cc(Cl)nn3c2-c2ccncc2)cc1Cl` [Example 69, 1-(5-chloro-6-methoxypyridin-3-yl)-3-(2-chloro-7-(pyridin-4-yl)pyrazolo[1,5-a]pyrimidin-6-yl)urea], for which the IC50 in assay [2] worked out at 678 nM. For `O=C(Nc1cnc(-n2nccn2)c(C(F)(F)F)c1)Nc1cnc2cc(Cl)nn2c1C1CCCO1` (centres unmarked) [Example 54, 1-(6-(2H-1,2,3-triazol-2-yl)-5-(trifluoromethyl)pyridin-3-yl)-3-(2-chloro-7-(tetrahydrofuran-2-yl)pyrazolo[1,5-a]pyrimidin-6-yl)urea], the half-maximal inhibitory concentration (IC50) in assay [3] turned out to be 94 nM; in assay [2], 117 nM. Take `O=C(Nc1cnc(-n2nccn2)c(Cl)c1)Nc1cnc2cc(Cl)nn2c1C1CC12CCOC2` (centres unmarked) [Example 68, 1-(5-chloro-6-(2H-1,2,3-triazol-2-yl)pyridin-3-yl)-3-(2-chloro-7-(5-oxaspiro[2.4]heptan-1-yl)pyrazolo[1,5-a]pyrimidin-6-yl)urea]: the IC50 in assay [2] was 586 nM.

In the case of `O=C(Nc1cnc(-n2nccn2)c(Cl)c1)Nc1cnc2cc(Cl)nn2c1C1COCCO1` (centres unmarked) [Example 43, 1-(5-chloro-6-(2H-1,2,3-triazol-2-yl)pyridin-3-yl)-3-(2-chloro-7-(1,4-dioxan-2-yl)pyrazolo[1,5-a]pyrimidin-6-yl)urea], the IC50 in assay [2] was determined as 159 nM. Regarding `COc1ncc(NC(=O)Nc2cnc3cc(Cl)nn3c2C2CCC(C)O2)cc1Cl` (centres unmarked) [Example 87, 1-(5-chloro-6-methoxypyridin-3-yl)-3-(2-chloro-7-(5-methyltetrahydrofuran-2-yl)pyrazolo[1,5-a]pyrimidin-6-yl)urea], the IC50 in assay [2] was 417 nM. On the same count and under the same terms, next, `COCCO[C@@H](C)c1c(NC(=O)Nc2ccnc(C(F)(F)F)c2)cnc2cc(Cl)nn12` [Example 41, (S)-1-(2-chloro-7-(1-(2-methoxyethoxy)ethyl)pyrazolo[1,5-a]pyrimidin-6-yl)-3-(2-(trifluoromethyl)pyridin-4-yl)urea]: 356 nM; `CC1(c2c(NC(=O)Nc3cnc(-n4nccn4)c(Cl)c3)cnc3cc(Cl)nn23)CC1` [Example 16, 1-(5-chloro-6-(2H-1,2,3-triazol-2-yl)pyridin-3-yl)-3-(2-chloro-7-(1-methylcyclopropyl)pyrazolo[1,5-a]pyrimidin-6-yl)urea]: 35 nM.

On to `CC(C)c1c(NC(=O)Nc2cc(C(F)(F)F)cn(C)c2=O)cnc2cc(Cl)nn12` [Example 32, 1-(2-chloro-7-isopropylpyrazolo[1,5-a]pyrimidin-6-yl)-3-(1-methyl-2-oxo-5-(trifluoromethyl)-1,2-dihydropyridin-3-yl)urea], for which the IC50 in assay [1] is 19 nM; in assay [4], 214 nM; in assay [3], 221 nM.
